# Assays:
# Assay in all cases: cells
# Type in all cases: cell-based
# IGROV-ET = conditions: Homo sapiens, IGROV-ET, 48 hours exposure, SRB; for GI50 / IC (TGI): 48 h; for CC50: read-out: LC50 (the source's name)
# How it was run: (§1)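 Continuous 48 h drug exposure of attached human cancer cells (5×10^3/well, RPMI 1640, 10% FBS), doses 10 to 10^−8 μg/ml. Endpoint is SRB staining after TCA fixation, read at 490 nm. GI, TGI and LC calculated from triplicate means.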
# MEL-28 = conditions: Homo sapiens, MEL-28, 48 hours exposure, SRB; for GI50 / IC (TGI): SK-MEL-28, 48 h; for CC50: SK-MEL-28, read-out: LC50 (the source's name)
# How it was run: as §1
# K562 = conditions: Homo sapiens, K562, 48 hours exposure, SRB; for GI50 / IC (TGI): K562, 48 h; for CC50: read-out: LC50 (the source's name)
# How it was run: as §1
# HELA = conditions: HELA, 48 hours exposure, SRB; for GI50 / CC50: Homo sapiens; for CC50: read-out: LC50 (the source's name)
# How it was run: as §1
# LOVO = conditions: Homo sapiens, 48 hours exposure, SRB; for GI50 / IC (TGI): LoVo, 48 h; for CC50: LOVO, read-out: LC50 (the source's name)
# How it was run: as §1
# DU145 = conditions: Homo sapiens, DU145, 48 hours exposure, SRB; for GI50 / IC (TGI): DU-145, 48 h; for CC50: DU-145, read-out: LC50 (the source's name)
# How it was run: as §1
# SK-BR3 = conditions: Homo sapiens, SK-BR3, 48 hours exposure, SRB; for GI50 / IC (TGI): SK-BR-3, 48 h; for CC50: SK-BR-3, read-out: LC50 (the source's name)
# How it was run: as §1
# HT29 = conditions: Homo sapiens, HT-29, 48 h, HT29, 48 hours exposure, SRB; for CC50: read-out: LC50 (the source's name)
# How it was run: as §1
# LNCAP = conditions: Homo sapiens, 48 hours exposure, SRB; for GI50 / IC (TGI): LNCaP, 48 h; for CC50: LNCAP, read-out: LC50 (the source's name)
# How it was run: as §1
# A549 = conditions: Homo sapiens, A549, 48 h, A549, 48 hours exposure, SRB; for GI50: read-out: GI50; for CC50: read-out: LC50 (the source's name); for IC (TGI): read-out: TGI
# How it was run: as §1
# PANC-1 = conditions: Homo sapiens, PANC-1, 48 hours exposure, SRB; for GI50 / IC (TGI): PANC-1, 48 h; for CC50: read-out: LC50 (the source's name)
# How it was run: as §1
# HELA-APL = conditions: for TGI / CC50: HELA-APL, 48 hours exposure, SRB; for GI50 / CC50: Homo sapiens; for GI50: 48 h; for CC50: read-out: LC50 (the source's name)
# How it was run: as §1
# LOVO-DOX = conditions: Homo sapiens, LOVO-DOX, 48 hours exposure, SRB; for GI50 / IC (TGI): 48 h; for CC50: read-out: LC50 (the source's name)
# How it was run: as §1
# IGROV = conditions: Homo sapiens, 48 hours exposure, SRB; for GI50 / IC (TGI): 48 h; for CC50: read-out: LC50 (the source's name)
# How it was run: as §1
compound,measurement,setting,value
COc1c(C)cc2c(c1O)[C@@H]1C3[C@@H]4SC[C@]5(NCCc6c5[nH]c5ccccc65)C(=O)COC[C@@H](c5c6c(c(C)c(OC(=O)OC(C)(C)C)c54)OCO6)N3[C@@H](C#N)[C@H](C2)N1C (stereo partly drawn) [Compound 57],GI50,IGROV-ET,394 nM
same,IC (TGI),IGROV-ET,1.15 µM
same,CC50,IGROV-ET,12.2 µM
same,GI50,MEL-28,64.7 nM
same,IC (TGI),MEL-28,0.209 µM
same,CC50,MEL-28,662 nM
same,GI50,K562,47.7 nM
same,IC (TGI),K562,0.466 µM
same,CC50,K562,12.2 µM
same,TGI,HELA,1.46E−07 Molar
same,GI50,HELA,43.7 nM
same,CC50,HELA,652 nM
same,GI50,LOVO,73 nM
same,IC (TGI),LOVO,0.257 µM
same,CC50,LOVO,905 nM
same,GI50,DU145,47.7 nM
same,IC (TGI),DU145,1.84 µM
same,CC50,DU145,12.2 µM
same,GI50,SK-BR3,67.6 nM
same,IC (TGI),SK-BR3,0.313 µM
same,CC50,SK-BR3,7.99 µM
same,GI50,HT29,165 nM
same,IC (TGI),HT29,1.41 µM
same,CC50,HT29,12.2 µM
same,GI50,LNCAP,33.3 nM
same,IC (TGI),LNCAP,0.0717 µM
same,CC50,LNCAP,23.2 nM
same,GI50,A549,103 nM
same,CC50,A549,12.2 µM
same,IC (TGI),A549,0.607 µM
same,GI50,PANC-1,113 nM
same,IC (TGI),PANC-1,0.662 µM
same,CC50,PANC-1,12.2 µM
same,TGI,HELA-APL,2.03E−07 Molar
same,GI50,HELA-APL,61.4 nM
same,CC50,HELA-APL,850 nM
same,GI50,LOVO-DOX,487 nM
same,IC (TGI),LOVO-DOX,6.7 µM
same,CC50,LOVO-DOX,12.2 µM
same,GI50,IGROV,71.8 nM
same,IC (TGI),IGROV,0.46 µM
same,CC50,IGROV,7.43 µM
C=COC(=O)Oc1c(C)c2c(c3c1[C@H]1SC[C@]4(NCCC5c6ccccc6NC54)C(=O)OC[C@@H]3N3C1[C@H]1c4c(cc(C)c(OC)c4OC(=O)OC=C)C[C@@H]([C@@H]3C#N)N1C)OCO2 (stereo partly drawn) [Compound 68],GI50,IGROV-ET,30.8 nM
same,IC (TGI),IGROV-ET,0.0689 µM
same,CC50,IGROV-ET,0.206 µM
same,GI50,MEL-28,7.52 nM
same,IC (TGI),MEL-28,0.0224 µM
same,CC50,MEL-28,67.2 nM
same,GI50,K562,20.4 nM
same,IC (TGI),K562,0.0447 µM
same,CC50,K562,0.0975 µM
same,TGI,HELA,6.03E−08 Molar
same,GI50,HELA,32.5 nM
same,CC50,HELA,112 nM
same,GI50,LOVO,27.1 nM
same,IC (TGI),LOVO,0.0497 µM
same,CC50,LOVO,91.3 nM
same,GI50,DU145,29.9 nM
same,IC (TGI),DU145,0.0865 µM
same,CC50,DU145,10.3 µM
same,GI50,SK-BR3,29 nM
same,IC (TGI),SK-BR3,0.0609 µM
same,CC50,SK-BR3,0.206 µM
same,GI50,HT29,317 nM
same,IC (TGI),HT29,0.0959 µM
same,CC50,HT29,11.7 µM
same,GI50,LNCAP,11.5 nM
same,IC (TGI),LNCAP,0.0266 µM
same,CC50,LNCAP,61.3 nM
same,GI50,A549,28.3 nM
same,CC50,A549,0.101 µM
same,IC (TGI),A549,0.0495 µM
same,GI50,PANC-1,48.1 nM
same,IC (TGI),PANC-1,0.125 µM
same,CC50,PANC-1,11.7 µM
same,TGI,HELA-APL,6.19E−08 Molar
same,GI50,HELA-APL,37 nM
same,CC50,HELA-APL,103 nM
same,GI50,LOVO-DOX,112 nM
same,IC (TGI),LOVO-DOX,0.743 µM
same,CC50,LOVO-DOX,11.7 µM
same,GI50,IGROV,21.7 nM
same,IC (TGI),IGROV,0.0616 µM
same,CC50,IGROV,1.09 µM

# From patent US7763615B2, “Ecteinascidin analogs for use as antitumour agents” (priority 2001, dated 2010)
